{
  "source": "patent US8227621B2",
  "about": "“Cyanine dyes and methods of use” (priority 2005, dated 2012)",
  "assay_type_in_all_cases": "biochemical",
  "key": {"[1]": {"biological_target": "human recombinant β-secretase (BACE-1) (Homo sapiens, UniProt P56817)", "sequence (P56817 46-457 limits assumed)": "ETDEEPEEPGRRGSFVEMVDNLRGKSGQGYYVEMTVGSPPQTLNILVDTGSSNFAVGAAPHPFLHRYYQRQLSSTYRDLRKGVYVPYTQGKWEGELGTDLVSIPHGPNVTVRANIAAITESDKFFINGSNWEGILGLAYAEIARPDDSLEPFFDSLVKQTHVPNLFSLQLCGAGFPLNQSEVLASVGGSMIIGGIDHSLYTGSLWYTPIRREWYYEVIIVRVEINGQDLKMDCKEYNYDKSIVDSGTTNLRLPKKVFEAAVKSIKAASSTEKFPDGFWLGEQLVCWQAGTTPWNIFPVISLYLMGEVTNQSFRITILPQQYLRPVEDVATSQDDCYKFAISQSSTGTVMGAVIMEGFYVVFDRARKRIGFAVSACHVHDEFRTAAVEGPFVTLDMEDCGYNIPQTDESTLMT", "assay": "BACE-1 enzyme inhibition assay", "settings": "100 nM BACE-1 mixture, 200 nM substrate Structure IV, room temperature 1 hour, Rodbard model", "description": "The BACE-1 assay buffer consists of 50 mM sodium acetate, 10 mM Tris-HCl, 10 mM NaCl, 0.002% Triton X-100, pH adjusted to 4.5. The BACE-1 stop buffer is a 0.8 M sodium phosphate buffer with 0.25 mg/mL BSA (pH 7.8). A characterized BACE-1 inhibitor, β-secretase inhibitor III, is purchased from Calbiochem (CA) (Cat # 565780). […] Two solid-state diode lasers at 680 nm and 780 nm are used as the excitation light sources and their corresponding fluorescence detection is accomplished by two silicon avalanche photodiodes at 710±10 nm and 810±10 nm. […]\nThe serially diluted solutions containing the BACE-1 peptide inhibitor (final concentrations from 0 to 2500 nM) were mixed with BACE-1 in BACE-1 assay buffer (total BACE-1 mixture final concentration of 100 nM) for 15 minutes followed by the addition of the BACE-1 protease substrate having Structure IV in a final concentration 200 nM. […] The fluorescence intensity was measured on Aerius® infrared imaging system (FIG. 22A)."}, "[2]": {"system": "trypsin", "assay": "NIR-dye labeled casein protease assay with trypsin", "settings": "10 μg/mL aprotinin; 20 nM casein conjugate, 5 μg/mL trypsin", "experimental": "Casein-NIR Reporter Dye B concentration is 20 nM, trypsin concentration is 5 μg/mL, and aprotinin concentration varies from 10 μg/mL, 5 μg/mL, 1.25 μg/mL, 0.31 μg/mL, 78 ng/mL, 19.5 ng/mL, 4.9 ng/mL, to 1.2 ng/mL. Trypsin was pre-incubated with the inhibitors for 1 hour at 37° C.\nDescribed below is a general method based on the over labeling of casein, with a near-infrared dye, i.e., NIR Reporter Dye B (a NIR-dye labeled casein substrate), for a protease activity microplate assay. The model protease assay uses the labeled casein as the substrate with trypsin as the enzyme, and the fluorescence emission is measured on a LI-COR® Biosciences' Aerius® microplate reader. NIR Reporter Dye B emits at 786 nm, yet it is still a very bright dye (see, FIG. 10).\nThe proteolytic reactions are carried out in 96-well plates with 50 mM TRIS buffer pH 7.8. […] (The reagent […] and its protein labeling and purification protocols are from LI-COR® Biosciences. Casein, trypsin, and aprotinin are all purchased from Sigma-Aldrich. Protein molecular weight markers labeled with a 700 nm fluorescence dye are from LI-COR® Biosciences.) The reactants are incubated at 37° C. for one hour and then stopped by adding aprotinin to 10 μg/mL final concentration. Then, after being spun, the plates are read on an the LI-COR® microplate reader Aerius®. […]"}, "[3]": {"biological_target": "T1, BACE-1 protease enzyme (Homo sapiens, UniProt P56817)", "T1 construct": "purchased Calbiochem", "T1 sequence (P56817 46-457 limits assumed)": "as above", "assay": "Effect of DMSO concentration on BACE-1 enzyme activity", "settings": "vs absence of DMSO", "experimental": "In this experiment, the BACE-1 protease substrate having Structure IV (200 nM), was incubated with various amounts of BACE-1 protease enzyme (0 to 100 nM) and DMSO concentrations (e.g., 0, 2, 5 or 10%) at room temperature for 1 hour. The enzymatic reactions were then terminated upon the addition of stop buffer and the fluorescence intensities were measured on an Aerius® imaging system. The addition of stop buffer further diluted the DMSO concentrations in the reaction solution from 0, 2, 5, 10% DMSO to 0, 0.5, 1.25, 2.5%, respectively. The change in fluorescence intensity observed for the different DMSO concentrations is a reflection of the interference of DMSO on the BACE-1 enzyme activity. […] DMSO concentration increase to 5% and 10%, the BACE-1 enzyme activity decreased 20% and 35% respectively of the original enzyme activity at the absence of DMSO throughout the enzyme concentration range."}, "[4]": {"biological_target": "T2, HIV-1 protease (Human immunodeficiency virus type 1 group M subtype B, UniProt P04585)", "T2 construct": "Recombinant HIV-1 protease; purchased BACHEM Biosciences", "assay": "Effect of DMSO and compound interferences on the HIV-1 protease assay", "settings": "DMSO 0%, 2.5%, 5% and 10%; 2.5-80 nM protease", "experimental": "To measure the tolerance of the HIV-1 protease assay to the presence of dimethyl sulfoxide (DMSO), 1 μM of substrate was incubated with 80 nM, 40 nM, 20 nM, 10 nM, 5 nM and 2.5 nM of HIV-1 protease in an assay buffer containing 10%, 5%, 2.5% or 0% DMSO. After incubation at 37° C. for 1.5 hours, the plate was treated with 0.8 M sodium phosphate stop buffer and then scanned on Aerius® System (LI-COR® Biosciences).\nThe robustness of the protease assay was evaluated against fluorescent, color quenching and light scattering interferences, which are the three major sources of compound interferences in high-throughput fluorescent assay screening. In these experiments, protease activity of the HIV-protease assay of the invention was measured in the presence of various amounts of the interference source and compared to that in the absence of the interference.\nFluorescein, a highly fluorescent compound, was chosen as the model fluorescent compound interference source. A series of fluorescein concentrations were mixed with the HIV-1 peptide substrate in the assay buffer system. These wells were then treated either with the enzyme (positive wells) or without the enzyme (negative wells) and incubated at 37° C. for 1 hour."}, "[5]": {"system": "human recombinant β-secretase (BACE-1)", "assay": "BACE-1 enzyme activity assay", "settings": "200 nM substrate, 400 nM BACE-1 mixture, 100 minutes", "experimental": "Purified human recombinant β-secretase (BACE-1) is purchased from Calbiochem (CA). The batch size of 50 μg is supplied as a mixture of the ˜68-70 KDa proenzyme and the ˜65-67 KDa mature enzyme in lyophilized form from sterile-filtered 150 mM NaCl, 50 mM Tris-HCl, pH 7.5. The product is then re-constituted with 100 μL sterile water immediately prior to use.\nThe BACE-1 assay buffer consists of 50 mM sodium acetate, 10 mM Tris-HCl, 10 mM NaCl, 0.002% Triton X-100, pH adjusted to 4.5. […] A characterized BACE-1 inhibitor, β-secretase inhibitor III, is purchased from Calbiochem (CA) (Cat # 565780). […] Two solid-state diode lasers at 680 nm and 780 nm are used as the excitation light sources and their corresponding fluorescence detection is accomplished by two silicon avalanche photodiodes at 710±10 nm and 810±10 nm. […]\nThe effect of enzyme concentration on proteolytic activity of the β-secretase (β-site amyloid precursor protein cleaving enzyme 1; BACE-1), is shown in FIGS. 20A-C. […] The enzymatic reaction was stopped by addition of BACE-1 stop buffer and the fluorescence was recorded by Aerius® infrared imaging system. […] Based on the fluorescence standard curve obtained (FIG. 20B), the degree of hydrolysis of BACE-1 peptide was determined as 53%. With increased amount of hydrolysis, higher fluorescence increase is expected."}},
  "note": "Square brackets hold non-standard residues; d marks the D form. Peptide text beside a SMILES is read from it. NIR Reporter Dye A = not defined here; Sta = CC(C)C[C@H](N)[C@@H](O)CC(=O)O; Compound 6 = not defined here",
  "data": [
    {"compound": "CC(C)C[C@H](NC(=O)[C@H](CC(N)=O)NC(=O)[C@@H](NC(=O)[C@@H](N)CCC(=O)O)C(C)C)[C@@H](O)CC(=O)N[C@H](C(=O)N[C@@H](C)C(=O)N[C@@H](CCC(=O)O)C(=O)N[C@@H](Cc1ccccc1)C(N)=O)C(C)C", "note": "[Statine-derived peptide inhibitor, H-Glu-Val-Asn-Statine-Val-Ala-Glu-Phe-NH2] (H-EVN[Sta]VAEF-NH2)", "values": [
      {"measurement": "IC50", "setting": "[1]", "value": 57, "unit": "nM"}
    ]},
    {"compound": "aprotinin", "values": [
      {"measurement": "fluorescence intensity change between total trypsin activity suppression and no inhibition", "setting": "[2]", "value": "more than 20 fold"}
    ]},
    {"compound": "C[S+](C)[O-]", "note": "[DMSO, dimethyl sulfoxide]", "values": [
      {"measurement": "reduction of BACE-1 protease enzyme activity", "setting": "[3]; DMSO 2%", "value": "≤ 10", "unit": "%"},
      {"measurement": "decrease of BACE-1 enzyme activity", "setting": "[3]; DMSO 5%", "value": 20, "unit": "%"},
      {"measurement": "decrease of BACE-1 enzyme activity", "setting": "[3]; DMSO 10%", "value": 35, "unit": "%"},
      {"measurement": "effect on cleavage of peptide substrate", "setting": "[4]", "value": "no significant effect"}
    ]},
    {"compound": "Structure IV: β-secretase (BACE-1) protease substrate peptide conjugated to NIR Reporter Dye A and Compound 6 (SEQ ID NO:5) ({NIR Reporter Dye A}-SEVNLDAEFRK(Compound 6)RR-OH; reading uncertain)", "values": [
      {"measurement": "fluorescence intensity increase over substrate not treated by enzyme", "setting": "[5]; room temperature", "value": 12, "unit": "fold"},
      {"measurement": "degree of hydrolysis of BACE-1 peptide", "setting": "[5]; from fluorescence standard curve", "value": 53, "unit": "%"}
    ]}
  ]
}
